Test results from US7405228B2, “Antibacterial cyano-(substituted)-methylenepiperidinophenyl oxazolidinones targeting multiple ribonucleoprotein sites” (Wockhardt Limited, priority 2002, dated 2008).

With `N#CC=C1CCN(c2ccc(N3CC(CN=[N+]=[N-])OC3=O)cc2F)CC1` (stereo in doubt) [Example 16, (S)-{3-[4-(4-cyanomethylidene-piperidin-1-yl)-3-fluorophenyl]-2-oxo-oxazolidin-5-ylmethyl}-azide] the melting point was 112 to 114 °C.
Molecule `CC(C)(C)CC(=O)NC[C@H]1CN(c2ccc(N3CCC(=CC#N)CC3)c(F)c2)C(=O)O1` [Example 12, (S)-N-{3-[4-(4-cyanomethylidene-piperidin-1-yl)-3-fluorophenyl]-2-oxo-oxazolidin-5-ylmethyl}-3,3-dimethylbutanamide] has a melting point of 210 to 212 °C.
For `N#CC=C1CCN(c2ccc(N3C[C@H](CNC(=O)CI)OC3=O)cc2F)CC1` [Example 36, (S)-N-{3-[4-(4-cyanomethylidene-piperidin-1-yl)-3-fluorophenyl]-2-oxo-oxazolidin-5-ylmethyl}-iodoacetamide], the melting point was 178 to 180 °C.
`N#CCC1CCN(c2ccc(N3C[C@H](CO)OC3=O)cc2)CC1` [Example 124, (R)-{3-[4-(4-cyanomethyl-piperidin-1-yl)-phenyl]-2-oxo-oxazolidin-5-ylmethyl}-alcohol] showed a melting point of 110 to 112 °C.
Work on `N#CC=C1CCN(c2ccc(N3C[C@H](CNC(=S)CN)OC3=O)cc2F)CC1` [Example 49, (S)-N-{3-[4-(4-cyanomethylidene-piperidin-1-yl)-3-fluorophenyl]-2-oxo-oxazolidin-5-ylmethylamino}-thiocarbonylmethylamine] yielded a melting point of 157 to 158 °C.
`CC(C)COC(=O)NC[C@H]1CN(c2ccc(N3CC/C(=C\C#N)C(F)C3)c(F)c2)C(=O)O1` (stereo partly drawn) [Example 58, (S)-N-{3-[4-(4-cyanomethylidene-3-fluoropiperidin-1-yl)-3-fluorophenyl]-2-oxo-oxazolidin-5-ylmethyl}-isobutylcarbamate] showed a melting point of 162 to 164 °C.
Work on `CS(=O)(=O)OC[C@H]1CN(c2ccc(N3CCC(C(C#N)C(N)=O)CC3)c(F)c2)C(=O)O1` (stereo partly drawn) [Example 158, (R)-{3-[4-(4-(1-cyano-1-carboxamido)-methylpiperidin-1-yl)-3-fluorophenyl]-2-oxo-oxazolidin-5-ylmethyl}-methanesulphonate] yielded a melting point of 220 to 222 °C.
With `CC1CN(c2ccc(N3C[C@H](CNc4nccs4)OC3=O)cc2F)CC/C1=C\C#N` (stereo partly drawn) [Example 66, (S)-2-{3-[4-(4-cyanomethylidene-3-methylpiperidin-1-yl)-3-fluorophenyl]-2-oxo-oxazolidin-5-ylmethylamino}-1,3-thiazole] the melting point was 75 to 77 °C.
For `CS(=O)(=O)OC[C@H]1CN(c2ccc(N3CCC(C(C#N)CO)CC3)c(F)c2)C(=O)O1` (stereo partly drawn) [Example 154, (R)-{3-[4-(4-(1-cyano-2-hydroxy)-ethylpiperidin-1-yl)-3-fluorophenyl]-2-oxo-oxazolidin-5-ylmethyl}-methanesulphonate], the melting point was 144 to 146 °C.
`N#CCC1CCN(c2ccc(N3CC(Cn4cc(C#N)nn4)OC3=O)cc2F)CC1` (stereo in doubt) [Example 128, (S)-1-{3-[4-(4-cyanomethyl-piperidin-1-yl)-3-fluorophenyl]-2-oxo-oxazolidin-5-ylmethyl}-4-cyano-1,2,3-triazole] gave a melting point of 200 to 202 °C.
`CC(C#N)=C1CCN(c2ccc(N3C[C@H](CNC(=O)C(Cl)(Cl)Cl)OC3=O)cc2F)CC1` [Example 80, (S)-N-{3-[4-(4-(1-cyanoethylidene)-piperidin-1-yl)-3-fluorophenyl]-2-oxo-oxazolidin-5-ylmethyl}-trichloroacetamide] gave a melting point of 166 to 168 °C.
Molecule `N#CC=C1CCN(c2ccc(N3C[C@H](CNC(=O)C4COC(=O)N4)OC3=O)cc2F)CC1` (stereo in doubt) [Example 24, (S)-N-{3-[4-(4-cyanomethylidene-piperidin-1-yl)-3-fluorophenyl]-2-oxo-oxazolidin-5-ylmethyl}-2-oxo-oxazolidin-4-yl-carboxamide] has a melting point of 145 °C.
